Results reported in patent publication US7135467B2, “HIV integrase inhibitors” (priority 2003, dated 2006).

What was measured:
[1] = molecular target: T1, HIV-integrase (recombinant integrase) (Human immunodeficiency virus type 1 group M subtype B, UniProt P12497); assay: HIV-Integrase Inhibition Activity (SPA bead strand-transfer assay); assay type: biochemical; conditions: recombinant integrase on biotin labeled substrate DNA/SPA beads, P33 labeled target DNA; read-out: Activity (IC50 against HIV-integrase)
T1 construct: Recombinant integrase (0.26 ng) was incubated with the beads
In short: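 Recombinant integrase (0.26 ng) was bound for 90 min at 37° C to biotin-labelled substrate DNA (5 pmole) on streptavidin SPA beads. After washing, inhibitors and 0.1 fmol P33-labelled target DNA were added, and the reaction was stopped with 10 mM EDTA. Integration was measured as CPM.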

Compound | melting point | IC50 [1] [µM]
Cc1ncnn1-c1nc(C(=O)NCc2ccc(F)cc2)c(O)c(=O)n1C [Compound 61, N-[(4-fluorophenyl)methyl]-1,6-dihydro-5-hydroxy-1-methyl-2-(5-methyl-1H-1,2,4-triazol-1-yl)-6-oxo-4-pyrimidinecarboxamide] | 230 °C | 0.1 to 1
Cc1ccc(CNC(=O)c2nc(N3CCOCC3)n(C)c(=O)c2O)cc1F [Compound 55, N-[(3-fluoro-4-methylphenyl)methyl]-1,6-dihydro-5-hydroxy-1-methyl-2-(4-morpholinyl)-6-oxo-4-pyrimidinecarboxamide] | 166 to 167 °C | 0.003 to 0.1
Cn1c(N2CCOCC2)nc(C(=O)NCc2ccc(Cl)c(Cl)c2)c(O)c1=O [Compound 53, N-[(3,4-dichlorophenyl)methyl]-1,6-dihydro-5-hydroxy-1-methyl-2-(4-morpholinyl)-6-oxo-4-pyrimidinecarboxamide] | 100 to 102 °C | 0.003 to 0.1
Cn1c(N2CCCCS2(=O)=O)nc(C(=O)Nc2ccc(F)cc2)c(O)c1=O [Compound 50, 2-(1,1-Dioxo-1λ^6-[1,2]thiazinan-2-yl)-5-hydroxy-1-methyl-6-oxo-1,6-dihydro-pyrimidine-4-carboxylic acid (4-fluoro-phenyl)-amide] | 285 to 291 °C (dec.) | ≥ 1
Cc1ncn(-c2nc(C(=O)NCc3ccc(F)c(C)c3)c(O)c(=O)n2C)n1 [Compound 60, N-[(4-fluoro-3-methylphenyl)methyl]-1,6-dihydro-5-hydroxy-1-methyl-2-(3-methyl-1H-1,2,4-triazol-1-yl)-6-oxo-4-pyrimidinecarboxamide] | 204 to 205 °C | 0.003 to 0.1
Cn1c(N2CCOCC2)nc(C(=O)NCc2ccc(F)cc2)c(O)c1=O [Compound 52, N-[(4-fluorophenyl)methyl]-1,6-dihydro-5-hydroxy-1-methyl-2-(4-morpholinyl)-6-oxo-4-pyrimidinecarboxamide] | 197 to 199 °C | 0.003 to 0.1
Cn1c(N2CCOCC2)nc(C(=O)NCc2ccc(F)c(Cl)c2)c(O)c1=O [Compound 56, N-[(3-chloro-4-fluorophenyl)methyl]-1,6-dihydro-5-hydroxy-1-methyl-2-(4-morpholinyl)-6-oxo-4-pyrimidinecarboxamide] | 170 to 171 °C | 0.003 to 0.1
Cc1cc(CNC(=O)c2nc(N3CCOCC3)n(C)c(=O)c2O)ccc1F [Compound 54, N-[(4-fluoro-3-methylphenyl)methyl]-1,6-dihydro-5-hydroxy-1-methyl-2-(4-morpholinyl)-6-oxo-4-pyrimidinecarboxamide] | 182 to 185 °C | 0.003 to 0.1
Cc1ccc(CNC(=O)c2nc(N3CCOCC3)n(C)c(=O)c2O)cc1C [Compound 57, N-[(3,4-dimethylphenyl)methyl]-1,6-dihydro-5-hydroxy-1-methyl-2-(4-morpholinyl)-6-oxo-4-pyrimidinecarboxamide] | 164 to 166 °C | 0.003 to 0.1
Cc1ncn(-c2nc(C(=O)NCc3ccc(Cl)c(Cl)c3)c(O)c(=O)n2C)n1 [Compound 59, N-[(3,4-dichlorophenyl)methyl]-1,6-dihydro-5-hydroxy-1-methyl-2-(3-methyl-1H-1,2,4-triazol-1-yl)-6-oxo-4-pyrimidinecarboxamide] | 188 to 189 °C (dec.) | 0.003 to 0.1
COc1cccc(CNC(=O)c2nc(N3CCCCS3(=O)=O)n(C)c(=O)c2O)c1 [Compound 11, 1,6-dihydro-5-hydroxy-N-[(3-methoxyphenyl)methyl]-1-methyl-6-oxo-2-(tetrahydro-1,1-dioxido-2H-1,2-thiazin-2-yl)-4-pyrimidinecarboxamide] |  | 0.1 to 1
Cn1c(N2CCCCS2(=O)=O)nc(C(=O)NCc2ccc(C(F)(F)F)cc2)c(O)c1=O [Compound 32, 1,6-dihydro-5-hydroxy-1-methyl-6-oxo-2-(tetrahydro-1,1-dioxido-2H-1,2-thiazin-2-yl)-N-[[4-(trifluoromethyl)phenyl]methyl]-4-pyrimidinecarboxamide] |  | 0.1 to 1
Cn1c(N2CCCCS2(=O)=O)nc(C(=O)NCc2cccc(OC(F)(F)F)c2)c(O)c1=O [Compound 48, 1,6-dihydro-5-hydroxy-1-methyl-6-oxo-2-(tetrahydro-1,1-dioxido-2H-1,2-thiazin-2-yl)-N-[[3-(trifluoromethoxy)phenyl]methyl]-4-pyrimidinecarboxamide] |  | 0.1 to 1
Cn1c(N2CCCCS2(=O)=O)nc(C(=O)NCc2ccccc2F)c(O)c1=O [Compound 28, N-[(2-fluorophenyl)methyl]-1,6-dihydro-5-hydroxy-1-methyl-6-oxo-2-(tetrahydro-1,1-dioxido-2H-1,2-thiazin-2-yl)-4-pyrimidinecarboxamide] |  | 0.1 to 1
